Experimental data as given in patent US5227487A, “Certain tricyclic and pentacyclic-hetero nitrogen rhodol dyes” (Molecular Probes, Inc., priority 1990, dated 1993).
“And” between values parts separate entries of the source, which are not always exact repeats. Identical values can stand only once.

Experiments:
[1] = pKa / pH dependence of absorption and emission; type: physicochemical
Description: | ^c In aqueous 50 mM phosphate buffer

[2] = Fluorescence emission spectra of rhodol dyes (uncorrected); type: physicochemical
Description: Uncorrected fluorescence data was obtained on a Perkin-Elmer Model 650-40 Fluorescence Spectrophotometer equipped with a Perkin-Elmer/Hitachi 057 X-Y recorder using a ten- to twentyfold dilution of the absorbance solutions. Fluorescence of the rhodol dyes was determined for the reactive dyes and for their conjugates with model compounds by dissolving the dye at a concentration above 1×10^-8 M in an appropriate solvent such as water, methanol or chloroform, followed by measurement of the fluorescence in a suitable instrument, such as a fluorescence spectrometer or fluorescence microscope.

[3] = Quantum yield relative to fluorescein; type: physicochemical; conditions: aqueous 50 mM phosphate buffer at pH 8.0-9.0; uncorrected
Description: (§1) An estimate of the quantum yield of the dyes relative to fluorescein (quantum yield=0.92 in 0.01M sodium hydroxide) was obtained by integrating the emission spectrum of the dye excited at the same wavelength and optical density as the standard. Approximate photostabilities of the rhodol derivatives, relative to fluorescein, were determined by measuring the time dependent decrease in fluorescence intensity, during continuous illumination, of equimolar solutions of the rhodol dyes and fluorescein.

[4] = Absorption spectra and extinction coefficients of rhodol dyes; type: physicochemical; conditions: aqueous 50 mM phosphate buffer at pH 8.0-9.0
Description: Stock solutions were prepared by accurately weighting and dissolving 5-10 mg samples of the compounds in 50 mM potassium phosphate buffer at pH 8.0. Absorbance solutions were prepared by further diluting the stock solution with 50 mM potassium phosphate buffer at pH 8.0.

[5] = as above; type: physicochemical; conditions: in methanol
[6] = background; cited from earlier work
[7] = background, cited from earlier work
[8] = cited from earlier work
[9] = Photobleaching / photostability relative to fluorescein; type: physicochemical; conditions: continuous illumination; equimolar solutions; 50 mM potassium phosphate pH 8.0 (FIG. 3)
Description: as §1

[10] = background; cited from earlier work; remark: listed apart in the source
[11] = aqueous 50 mM phosphate buffer at pH 8.0-9.0

Compound | Em Max [2, 11] [nm] | QY (quantum yield) [3] | Abs Max [4] [nm] | ε (extinction coefficient) [4] [M⁻¹ cm⁻¹] | Em Max ([2]; in methanol) [nm] | Abs Max [5] [nm] | other results
O=C(O)c1ccc(C(=O)O)c(-c2c3cc(Cl)c(=O)cc-3oc3c4c5c(cc23)CCCN5CCC4)c1 [Compound 28] | 572 | 0.31 | 547 | 74500 |  |  | pKa ([1]; 50 mm phosphate buffer): 5.11
NCCNC(=O)c1ccc(C(=O)O)c(-c2c3cc(Cl)c(=O)cc-3oc3c4c5c(cc23)CCCN5CCC4)c1 [Compound 31] |  |  |  |  | 568 | 540 | 
O=c1cc2oc3c4c5c(cc3c(CCl)c-2cc1Cl)CCCN5CCC4 [Compound 51] |  |  |  |  | 578 | 563 | 
O=C1OC2(c3ccc(O)cc3Oc3cc(O)ccc32)c2ccccc21 [Fluorescein] | 514 | 0.92 | 490 | 75000 |  |  | pKa ([1]; aqueous 50 mM phosphate buffer): 6.4; pH sensitivity [6]: pH dependent absorption spectrum; absorption intensity at 514 nm relative to maximum at 492 nm ([7]; 514 nm): less than 10%; absorptivity at peak ([7]; at absorption peak): 75,000 cm^-1 M^-1; absorption maximum [7]: 492 nm and ~490 nm; quantum yield of the standard ([8]; in 0.01M sodium hydroxide): 0.92
NCCCCCNC(=O)c1ccc(C(=O)O)c(-c2c3cc(Cl)c(=O)cc-3oc3c4c5c(cc23)CCCN5CCC4)c1 [Compound 30] |  |  |  | 57300 | 567 | 541 | 
Carboxyfluorescein [reference compound] | 514 | 0.78 | 491 | 75000 |  |  | pKa ([1]; 50 mm phosphate buffer): 6.4
CN(C)c1ccc2c(-c3ccccc3C(=O)[O-])c3ccc(N(C)C)cc3[o+]c2c1 [Tetramethylrhodamine] |  |  |  |  |  |  | pH sensitivity [6]: pH insensitive; photostability [10]: relatively photostable; quantum yield in alcohol ([8]; background, in alcohol): above 0.90; quantum yield in water ([8]; background, in water): approximately 0.23
N#Cc1c2cc(CCC(=O)O)c(=O)cc-2oc2c3c4c(cc12)CCCN4CCC3 [Compound 58] | 664 |  | 640 |  |  |  | 
O=C(O)CCCCCCCCCCCc1cc2cc3cc4c5c(c3oc-2cc1=O)CCCN5CCC4 [Compound 56] |  |  |  |  | 556 | 532 | ε (extinction coefficient) [5]: 84400 M⁻¹ cm⁻¹
NCCCCCNC(=O)CCc1cc2c(cc1O)Oc1c(cc3c4c1CCCN4CCC3)C21OC(=O)c2ccccc21 (stereo not drawn) [Compound 50] | 572 |  | 543 |  |  |  | 
O=C(O)CCc1cc2cc3cc4c5c(c3oc-2cc1=O)CCCN5CCC4 [Compound 54] | 562 | 0.44 | 538 | 69500 | 555 | 531 | ε (extinction coefficient) [5]: 81400 M⁻¹ cm⁻¹
O=C(O)CCc1cc2c(cc1O)Oc1c(cc3c4c1CCCN4CCC3)C21OC(=O)c2ccccc21 (stereo not drawn) [Compound 39, 3'-hydroxy-2,3,6,7-tetrahydro-1H, 5H-quinolizino[1,9-hi]-spiro[isobenzofuran-1(3H),9'-[9H]xanthen-3-one-2'-(3-propionic acid)] | 562 | 0.41 | 541 | 58200 |  |  | pKa ([1]; 50 mm phosphate buffer): 6.63
Carboxytetramethylrhodamine [reference compound] | 574 | 0.23 | 547 | 77000 |  |  | 

The next lines start with results.

Em Max [2, 11] [nm] | QY (quantum yield) [3] | Abs Max [4] [nm] | ε (extinction coefficient) [4] [M⁻¹ cm⁻¹] | Em Max ([2]; in methanol) [nm] | Abs Max [5] [nm] | Compound | other results
572 |  | 547 |  | 562 | 531 | CCCCCCCCCCCCCCCCc1cc2c(-c3cc(C(=O)O)ccc3C(=O)O)c3cc4c5c(c3oc-2cc1=O)CCCN5CCC4 [Compound 34] | ε (extinction coefficient) [5]: 84400 M⁻¹ cm⁻¹
535 | 0.81 | 510 | 54800 |  |  | 5-(and -6)-carboxy-2',7'-dimethyl-3'-hydroxy-6'-N-ethylamino-spiro[isobenzofuran- 1(3H),9'-[9H]xanthen-3-one [Compound 12] | pKa ([1]; aqueous 50 mM phosphate buffer): 5.82
517 | 0.81 | 492 | 59900 |  |  | 5(and -6)-carboxy-3'-hydroxy-6'-amino-spiro[isobenzofuran-1(3H,9'-[9H]xanthen-3- one [Compound 1] | pKa ([1]; aqueous 50 mM phosphate buffer): 5.59; pH dependence of absorption and emission ([1]; aqueous solution, between pH 6 and 10, compared with fluorescein (FIG. 4)): less significant pH dependence; photostability / rate of photobleaching relative to fluorescein [9]: superior photostability
546 | 0.37 | 524 |  |  |  | O=C(O)c1ccc(C(=O)O)c(-c2c3cc(Cl)c(=O)cc-3oc3cc4c(cc23)CCCN4)c1 [Compound 24, 5-(and-6)-carboxy-2'-chloro-3'-hydroxy-1,2,3,4tetrahydropyridino[5,6-i]-spiro[isobenzofuran-1(3H),9'-[9H]xanthen-3-one] | pKa ([1]; 50 mm phosphate buffer): 4.50
573 |  | 544 |  |  |  | O=C(CCc1cc2c(-c3ccccc3C(=O)O)c3cc4c5c(c3oc-2cc1=O)CCCN5CCC4)NCCCCCNC(=O)CN1C(=O)C=CC1=O [Compound 45] | 
603 |  | 558 |  |  |  | CCc1cc2c(C(=O)O)c3cc4c5c(c3oc-2cc1=O)CCCN5CCC4 [Compound 52] | 
572 |  | 545 |  |  |  | [N-]=[N+]=Nc1ccc(C(=O)NCCCCCNC(=O)CCc2cc3c(cc2O)Oc2c(cc4c5c2CCCN5CCC4)C32OC(=O)c3ccccc32)cc1 (stereo not drawn) [Compound 43] | 
635 |  | 602 |  | 633 | 593 | O=C(O)CCc1cc2c(C(F)(F)F)c3cc4c5c(c3oc-2cc1=O)CCCN5CCC4 [Compound 57] | 
571 |  | 544 |  |  |  | C=CC(=O)NCCCCCNC(=O)CCc1cc2c(-c3ccccc3C(=O)O)c3cc4c5c(c3oc-2cc1=O)CCCN5CCC4 [Compound 42] | 
562 |  | 538 | 64100 | 556 | 532 | O=C(O)CCCCc1cc2cc3cc4c5c(c3oc-2cc1=O)CCCN5CCC4 [Compound 55] | ε (extinction coefficient) [5]: 88700 M⁻¹ cm⁻¹
573 |  | 542 |  |  |  | NNC(=O)CCc1cc2c(-c3ccccc3C(=O)O)c3cc4c5c(c3oc-2cc1=O)CCCN5CCC4 [Compound 49] | 
534 | 0.65 | 510 | 79400 |  |  | CCNc1cc2oc3cc(=O)c(CCC(=O)O)cc-3c(-c3ccccc3C(=O)O)c2cc1C [Compound 17] | pKa ([1]; 50 mm phosphate buffer): 5.91
572 |  | 544 |  |  |  | O=C(CI)NCCCCCNC(=O)CCc1cc2c(-c3ccccc3C(=O)O)c3cc4c5c(c3oc-2cc1=O)CCCN5CCC4 [Compound 44] | 
